{
  "source": "patent US11279681B2",
  "about": "“3-alkyl bicyclic [4,5,0] hydroxamic acids as HDAC inhibitors” (Valo Health, Inc., priority 2015, dated 2022)",
  "data": [
    {"molecular_target": "T1, HDAC6 (Homo sapiens, UniProt Q9UBN7)", "T1 sequence (Q9UBN7 1-1215)": "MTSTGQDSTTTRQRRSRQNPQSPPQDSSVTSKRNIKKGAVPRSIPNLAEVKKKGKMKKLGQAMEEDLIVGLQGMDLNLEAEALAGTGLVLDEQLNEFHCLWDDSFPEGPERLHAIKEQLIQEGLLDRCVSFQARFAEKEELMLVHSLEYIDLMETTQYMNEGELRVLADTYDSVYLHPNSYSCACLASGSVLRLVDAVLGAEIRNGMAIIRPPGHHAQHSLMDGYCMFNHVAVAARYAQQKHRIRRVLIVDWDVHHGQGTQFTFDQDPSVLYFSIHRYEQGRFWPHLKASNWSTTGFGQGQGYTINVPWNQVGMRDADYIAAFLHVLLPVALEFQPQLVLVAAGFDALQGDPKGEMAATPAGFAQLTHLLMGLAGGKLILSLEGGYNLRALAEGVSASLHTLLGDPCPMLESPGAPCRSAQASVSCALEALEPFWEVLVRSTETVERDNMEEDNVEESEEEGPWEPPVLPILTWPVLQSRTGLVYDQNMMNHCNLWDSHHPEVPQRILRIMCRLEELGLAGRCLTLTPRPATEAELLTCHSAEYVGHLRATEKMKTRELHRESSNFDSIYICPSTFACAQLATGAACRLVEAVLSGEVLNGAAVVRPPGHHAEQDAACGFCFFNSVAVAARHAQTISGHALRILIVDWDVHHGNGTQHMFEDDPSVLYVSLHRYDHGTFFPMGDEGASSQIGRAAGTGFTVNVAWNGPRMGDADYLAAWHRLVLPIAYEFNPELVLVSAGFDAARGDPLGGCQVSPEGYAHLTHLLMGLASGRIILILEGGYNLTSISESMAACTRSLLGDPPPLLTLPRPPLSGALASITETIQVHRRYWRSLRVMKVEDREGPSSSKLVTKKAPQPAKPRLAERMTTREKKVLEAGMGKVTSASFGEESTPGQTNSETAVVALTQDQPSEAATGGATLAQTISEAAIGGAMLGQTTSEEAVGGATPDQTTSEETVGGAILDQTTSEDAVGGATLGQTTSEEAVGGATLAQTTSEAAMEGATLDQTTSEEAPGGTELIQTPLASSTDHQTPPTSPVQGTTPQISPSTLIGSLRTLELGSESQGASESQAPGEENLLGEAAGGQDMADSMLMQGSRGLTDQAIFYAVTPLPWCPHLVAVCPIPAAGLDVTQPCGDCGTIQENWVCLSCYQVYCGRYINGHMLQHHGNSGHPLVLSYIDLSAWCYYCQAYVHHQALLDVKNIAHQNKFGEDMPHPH", "experiment": "In vitro histone deacetylase assay: enzymatic HDAC6 electrophoretic mobility shift assay", "assay_type": "biochemical", "details": "full length human recombinant HDAC6, 1 nM enzyme, 2 μM peptide substrate RHKK(Ac)-NH2, 25° C.; read-out: Inhibitory Concentration (IC50) Values for Representative Compounds against HDAC6, Activity Range", "procedure": "The enzymatic HDAC6 assay was performed using electrophoretic mobility shift assay. […] The enzymatic reactions were assembled in 384 well plates in a total volume of 25 μL in a reaction buffer composing: 100 mM HEPES, pH7.5, 25 mM KCl, 0.1% bovine serum albumin, 0.01% Triton X-100, 1% DMSO (from compounds) 2 μM of the fluorescently labeled peptide substrate and enzyme. The enzyme was added at a final concentration of 1 nM. The peptide substrate RHKK(Ac)-NH2 was used. The compounds were tested at 12 concentrations spaced by 3× dilution intervals. Negative control samples (0%-inhibition in the absence of inhibitor) and positive control samples (100%-inhibition) were assembled in replicates of four in each assay plate. The reactions were incubated at 25° C. and quenched by the addition of 45 μL of termination buffer (100 mM HEPES, pH 7.5, 0.01% Triton X-100, 0.05% SDS).\nThe terminated assay plates were analyzed on LabChip® 3000 microfluidic electrophoresis instrument (Perkin Elmer/Caliper Life Sciences). The fluorescence intensity of the electrophoretically separated de-acetylated product and substrate peptide was measured. Activity in each sample was determined as the product to sum ratio (PSR): P/(S+P), where P is the peak height of the product peptide and S is the peak height of the substrate peptide. Percent inhibition (Pinh) is determined using the following equation:\nPinh=(PSR0%−PSRinh)/(PSR0%−PSR100%)*100, where PSRinh is the product sum ratio in the presence of inhibitor, PSR0% is the average product sum ration in the absence of inhibitor and PSR100% is the average product sum ratio in 100%-inhibition control samples. The IC50 values of inhibitors were determined by fitting the %-inhibition curves with 4 parameter dose-response model using XLfit 4 software.", "units": {"IC50": "nM"}, "values": [
      {"molecule": "O=C(NO)c1ccc2c(c1)S(=O)(=O)N(Cc1ccccc1)CCO2", "IC50": "100 to 500"},
      {"molecule": "O=C(NO)c1ccc2c(c1)OCCN(Cc1ccccc1)S2(=O)=O", "IC50": "> 500"},
      {"molecule": "O=C(NO)c1ccc2c(c1)OCCN(c1nc3ccccc3[nH]1)C2", "IC50": "≤ 100"},
      {"molecule": "O=C(NO)c1ccc2c(c1)CN(c1nc3ccccc3[nH]1)CCO2", "IC50": "100 to 500"},
      {"molecule": "O=C1CN(Cc2nc3ccccc3[nH]2)Cc2cc(C(=O)NO)ccc2N1", "IC50": "≤ 100"},
      {"molecule": "O=C1CN(Cc2nc3ccccc3[nH]2)Cc2ccc(C(=O)NO)cc2N1", "IC50": "100 to 500"},
      {"molecule": "O=C(NO)c1ccc2c(c1)CN(Cc1nc3ccccc3[nH]1)CCO2", "IC50": "> 500"},
      {"molecule": "O=C(NO)c1ccc2c(c1)OCCN(Cc1nc3ccccc3[nH]1)C2", "IC50": "≤ 100"},
      {"molecule": "O=C(NO)c1ccc2c(c1)OCCN(c1nc3ccccc3s1)C2", "IC50": "100 to 500"},
      {"molecule": "O=C(NO)c1ccc2c(c1)OCCN(c1ccc(Cl)c(Cl)c1)C2", "IC50": "100 to 500"},
      {"molecule": "N#Cc1ccc(N2CCOc3cc(C(=O)NO)ccc3C2)cc1C(F)(F)F", "IC50": "100 to 500"},
      {"molecule": "O=C(NO)c1ccc2c(c1)OCCN(CC1CCCCC1)C2", "IC50": "100 to 500"},
      {"molecule": "CC(c1ccccc1)N1CC(=O)Nc2ccc(C(=O)NO)cc2C1", "note": "(centres unmarked)", "IC50": "≤ 100"},
      {"molecule": "COCCn1c(N2CCOc3cc(C(=O)NO)ccc3C2)nc2ccccc21", "IC50": "≤ 100"},
      {"molecule": "COc1ccc(CCN2CC(=O)Nc3ccc(C(=O)NO)cc3C2)cc1", "IC50": "100 to 500"},
      {"molecule": "COc1ccc(CCN2CCOc3ccc(C(=O)NO)cc3C2)cc1", "IC50": "> 500"},
      {"molecule": "COc1ccc(CCN2CCOc3cc(C(=O)NO)ccc3C2)cc1", "IC50": "100 to 500"},
      {"molecule": "COc1ccc(CCN2CCOc3cc(C(=O)NO)ccc3C2=O)cc1", "IC50": "100 to 500"},
      {"molecule": "COc1ccc(S(=O)(=O)N2CC(=O)Nc3ccc(C(=O)NO)cc3C2)cc1", "IC50": "> 500"},
      {"molecule": "COc1ccc(S(=O)(=O)N2CCOc3cc(C(=O)NO)cnc3C2)cc1", "IC50": "100 to 500"},
      {"molecule": "COc1ccc(S(=O)(=O)N2CCOc3nc(C(=O)NO)ccc3C2)cc1", "IC50": "> 500"},
      {"molecule": "COc1ccc(S(=O)(=O)N2CCOc3ccc(C(=O)NO)cc3C2)cc1", "IC50": "100 to 500"},
      {"molecule": "COc1ccc(S(=O)(=O)N2CCOc3cc(C(=O)NO)ccc3C2)cc1", "IC50": "100 to 500"},
      {"molecule": "COc1ccc(CN2CC(=O)N(C)c3ccc(C(=O)NO)cc3C2)cc1", "IC50": "> 500"},
      {"molecule": "COCCn1c(CN2CCOc3cc(C(=O)NO)ccc3C2)nc2ccccc21", "IC50": "100 to 500"},
      {"molecule": "COCCn1c(CN2CCOc3ccc(C(=O)NO)cc3C2)nc2ccccc21", "IC50": "> 500"},
      {"molecule": "COc1ccc(CN2CCN(C)c3ccc(C(=O)NO)cc3C2)cc1", "IC50": "> 500"},
      {"molecule": "COc1ccc(CN2CC(=O)Nc3ccc(C(=O)NO)cc3C2)cc1", "IC50": "100 to 500"},
      {"molecule": "COc1ccc(CN2CCOc3cc(C(=O)NO)cnc3C2)cc1", "IC50": "100 to 500"},
      {"molecule": "COc1ccc(CN2CCOc3nc(C(=O)NO)ccc3C2)cc1", "IC50": "> 500"},
      {"molecule": "COc1ccc(CN2CCOc3ccc(C(=O)NO)cc3C2)cc1", "IC50": "> 500"},
      {"molecule": "COc1ccc(CN2CCOc3cc(C(=O)NO)ccc3C2)cc1", "IC50": "100 to 500"},
      {"molecule": "COc1ccc(CN2CCNc3ccc(C(=O)NO)cc3C2)cc1", "IC50": "> 500"},
      {"molecule": "COc1ccc(CN2CCOc3ccc(C(=O)NO)cc3C2=O)cc1", "IC50": "> 500"},
      {"molecule": "COc1ccc(CN2CCOc3cc(C(=O)NO)ccc3C2=O)cc1", "IC50": "100 to 500"},
      {"molecule": "COc1ccc(NC(=O)N2CCOc3ccc(C(=O)NO)cc3C2)cc1", "IC50": "> 500"},
      {"molecule": "COc1ccc(NC(=O)N2CCOc3cc(C(=O)NO)cnc3C2)cc1", "IC50": "≤ 100"},
      {"molecule": "COc1ccc(NC(=O)N2CCOc3cc(C(=O)NO)ccc3C2)cc1", "IC50": "100 to 500"},
      {"molecule": "C[C@@H]1COc2cc(C(=O)NO)ccc2CN1c1ccccc1", "IC50": "100 to 500"},
      {"molecule": "COc1ccc(S(=O)(=O)N2Cc3ccc(C(=O)NO)cc3OC[C@H]2C)cc1", "IC50": "> 500"},
      {"molecule": "COc1ccc(CN2Cc3ccc(C(=O)NO)cc3OC[C@H]2C)cc1", "IC50": "≤ 100"},
      {"molecule": "COc1ccc(NC(=O)N2Cc3ccc(C(=O)NO)cc3OC[C@H]2C)cc1", "IC50": "100 to 500"},
      {"molecule": "C[C@H]1COc2cc(C(=O)NO)ccc2CN1c1ccccc1", "IC50": "≤ 100"},
      {"molecule": "COc1ccc(S(=O)(=O)N2Cc3ccc(C(=O)NO)cc3OC[C@@H]2C)cc1", "IC50": "100 to 500"},
      {"molecule": "COc1ccc(CN2Cc3ccc(C(=O)NO)cc3OC[C@@H]2C)cc1", "IC50": "≤ 100"},
      {"molecule": "COc1ccc(NC(=O)N2Cc3ccc(C(=O)NO)cc3OC[C@@H]2C)cc1", "IC50": "≤ 100"},
      {"molecule": "COc1ccc(CN2CCOc3ccc(C(=O)NO)cc3C2C)cc1", "note": "(centres unmarked)", "IC50": "> 500"}
    ]}
  ]
}
